According to ChEMBL document CHEMBL4011606, “Synthesis and antiplasmodial activity of novel indoleamide derivatives bearing sulfonamide and triazole pharmacophores” (Eur J Med Chem, 2017):

Assays:
Plasmodium falciparum [1] = test: Antiplasmodial activity against chloroquine-sensitive Plasmodium falciparum 3D7 infected in human erythrocytes measured after 72 hrs by SYBR green 1 dye based fluorescence assay; assay type: functional, cell-based; settings: 3D7, 72 h
Plasmodium falciparum [2] = test: Antiplasmodial activity against chloroquine-resistant Plasmodium falciparum K1 infected in human erythrocytes measured after 72 hrs by SYBR green 1 dye based fluorescence assay; assay type: functional, cell-based; settings: K1, 72 h
[3] = Resistance index, ratio of IC50 for chloroquine-resistant Plasmodium falciparum K1 to IC50 for chloroquine-sensitive Plasmodium falciparum 3D7; assay type: functional
[4] = Cytotoxicity against African green monkey Vero cells measured after 3 days by resazurin dye based fluorescence assay; assay type: cell-based; settings: chlorocebus sabaeus
[5] = Selectivity index, ratio of CC50 for African green monkey Vero cells to IC50 for chloroquine-sensitive Plasmodium falciparum 3D7; assay type: toxicity; settings: read-out: Ratio CC50/IC50
[6] = Selectivity index, ratio of CC50 for African green monkey Vero cells to IC50 for chloroquine-resistant Plasmodium falciparum K1; assay type: toxicity; settings: read-out: Ratio CC50/IC50

Structure (SMILES)	IC50 (Plasmodium falciparum [1])	IC50 (Plasmodium falciparum [2])	Ratio IC50 [3]	CC50 at 72 h [4]	selectivity ratio [5]	selectivity ratio [6]
CC(C)(C)c1ccc(S(=O)(=O)n2cc(CCC(=O)NC3CCCCCC3)c3ccccc32)cc1	6.24 µM	5.76 µM	0.92			
C=CCn1cc(CCCC(=O)NC23CC4CC(CC(C4)C2)C3)c2ccccc21	5.04 µM	7.56 µM	1.5			
O=C(CCCc1cn(S(=O)(=O)c2cccs2)c2ccccc12)NC1CCCCCC1	> 10 µM	5.55 µM	< 0.55			
O=C(Cn1cc(Cn2cc(CCCC(=O)NC3CCCCCC3)c3ccccc32)nn1)Nc1ccc(I)cc1	> 10 µM	> 10 µM	> 1			
O=C(Cc1c[nH]c2ccccc12)NCc1cn(CC(=O)Nc2ccc(F)c(Cl)c2)nn1	> 10 µM	> 10 µM	> 1			
Cc1cc(S(=O)(=O)n2cc(CCCC(=O)NC34CC5CC(CC(C5)C3)C4)c3ccccc32)c(C)cc1Cl	1.93 µM	2.12 µM	1.15	> 250 µM	> 129	> 112
O=C(Cc1c[nH]c2ccccc12)NCc1cn(CC(=O)Nc2ccc(Cl)cc2)nn1	> 10 µM	> 10 µM	> 1			
O=C(CCCc1cn(S(=O)(=O)c2ccccc2)c2ccccc12)NC1CCCCCC1	7.37 µM	6.06 µM	0.82			
O=C(Cc1c[nH]c2ccccc12)NCc1cn(CC(=O)Nc2ccc(Br)cc2)nn1	8.77 µM	> 10 µM	> 1.14			
O=C(Cn1cc(Cn2cc(CCCC(=O)NC3CCCCCC3)c3ccccc32)nn1)Nc1ccc(Br)cc1	> 10 µM	8.7 µM	< 0.87			
CC(C)(C)c1ccc(S(=O)(=O)n2cc(CCCC(=O)NC3C4CC5CC(C4)CC3C5)c3ccccc32)cc1 (stereo not given)	3.35 µM	4.26 µM	1.27	> 250 µM	> 74	> 58
O=C(CCCc1cn(Cc2ccc(Br)cc2)c2ccccc12)NC1CCCCCC1	> 10 µM	> 10 µM	> 1			
O=C(Cn1cc(Cn2cc(CCCC(=O)NC3CCCCCC3)c3ccccc32)nn1)Nc1ccc(F)cc1	8.12 µM	7.82 µM	0.96			
O=C(Cc1c[nH]c2ccccc12)NCc1cn(CC(=O)Nc2ccc(F)cc2)nn1	5.16 µM	7.38 µM	1.43			
O=C(CCCc1cn(Cc2ccc(F)cc2)c2ccccc12)NC12CC3CC(CC(C3)C1)C2	2.2 µM	3.5 µM	1.59	> 250 µM	> 113	> 71
O=C(CCCc1cn(Cc2ccc(Cl)cc2)c2ccccc12)NC12CC3CC(CC(C3)C1)C2	3.4 µM	5.3 µM	1.55	> 250 µM	> 73	> 47
O=C(Cn1cc(Cn2cc(CCCC(=O)NC3CCCCCC3)c3ccccc32)nn1)Nc1ccc(Cl)cc1	> 10 µM	> 10 µM	> 1			
O=C(CCCc1cn(S(=O)(=O)c2ccccc2)c2ccccc12)NC12CC3CC(CC(C3)C1)C2	5.04 µM	2.46 µM	0.48	> 250 µM	> 49	> 101
Cc1ccc(NC(=O)Cn2cc(CNC(=O)Cc3c[nH]c4ccccc34)nn2)cc1C	7.02 µM	6.46 µM	0.87			
O=C(CCCc1cn(Cc2cn(Cc3ccccc3)nn2)c2ccccc12)NC1CCCCCC1	> 10 µM	> 10 µM	> 1			
O=C(CCCc1c[nH]c2ccccc12)NC12CC3CC(CC(C3)C1)C2	> 10 µM	> 10 µM	> 1			
O=C(Cc1c[nH]c2ccccc12)NCc1cn(CC(=O)Nc2ccccc2Cl)nn1	> 10 µM	> 10 µM	> 1			
O=C(Cn1cc(Cn2cc(CCCC(=O)NC3CCCCCC3)c3ccccc32)nn1)Nc1ccc(F)c(Cl)c1	9.9 µM	8.64 µM	0.87			
O=C(Cc1c[nH]c2ccccc12)NCc1cn(CC(=O)Nc2ccc(I)cc2)nn1	3.83 µM	2.25 µM	0.58	> 250 µM	> 65	> 111
O=C(CCCc1cn(Cc2ccccc2)c2ccccc12)NC12CC3CC(CC(C3)C1)C2	3.6 µM	4.2 µM	1.16	> 250 µM	> 69	> 59
Cc1ccc(S(=O)(=O)n2cc(CCCC(=O)NC3CCCCCC3)c3ccccc32)cc1	3.38 µM	3.27 µM	0.96	> 250 µM	> 73	> 76

Structure (SMILES)	IC50 (Plasmodium falciparum [1])	IC50 (Plasmodium falciparum [2])	Ratio IC50 [3]	CC50 at 72 h [4]	selectivity ratio [5]	selectivity ratio [6]
Cn1cc(CCCC(=O)NC23CC4CC(CC(C4)C2)C3)c2ccccc21	9.73 µM	> 10 µM	> 1.02			
O=C(CCCc1cn(S(=O)(=O)c2cccc3ccccc23)c2ccccc12)NC1CCCCCC1	4.67 µM	3.68 µM	0.78	> 250 µM	> 53	> 67
O=C(CCCc1c[nH]c2ccccc12)NC1CCCCCC1	> 10 µM	> 10 µM	> 1			
O=C(CCCc1cn(Cc2ccccc2)c2ccccc12)NC1CCCCCC1	9.56 µM	> 10 µM	> 1.04			
O=C(Cn1cc(Cn2cc(CCCC(=O)NC34CC5CC(CC(C5)C3)C4)c3ccccc32)nn1)Nc1ccc(Br)cc1	> 10 µM	8.78 µM	< 0.87			
O=C(Cn1cc(Cn2cc(CCCC(=O)NC3CCCCCC3)c3ccccc32)nn1)Nc1ccccc1Cl	> 10 µM	> 10 µM	> 1			
O=C(Cn1cc(Cn2cc(CCCC(=O)NC34CC5CC(CC(C5)C3)C4)c3ccccc32)nn1)Nc1ccc(Cl)cc1	> 10 µM	> 10 µM	> 1			
O=C(CCCc1cn(CCN2CCCCC2)c2ccccc12)NC12CC3CC(CC(C3)C1)C2	5.63 µM	> 10 µM	> 1.37			
O=C(CCCc1cn(Cc2ccc(Br)cc2)c2ccccc12)NC12CC3CC(CC(C3)C1)C2	3.15 µM	3.35 µM	1.06	> 250 µM	> 79	> 74
Cc1ccc(NC(=O)Cn2cc(Cn3cc(CCCC(=O)NC4CCCCCC4)c4ccccc43)nn2)cc1C	> 10 µM	> 10 µM	> 1			
O=C(Cn1cc(Cn2cc(CCCC(=O)NC34CC5CC(CC(C5)C3)C4)c3ccccc32)nn1)Nc1ccc(F)cc1	> 10 µM	8.68 µM	< 0.86			
CC(C)(C)c1ccc(S(=O)(=O)n2cc(CCCC(=O)NC34CC5CC(CC(C5)C3)C4)c3ccccc32)cc1	1.87 µM	1.69 µM	0.9	> 250 µM	> 133	> 147
Cn1cc(CCCC(=O)NC2CCCCCC2)c2ccccc21	> 10 µM	> 10 µM	> 1			
CCN(CC)CCCC(C)Nc1ccnc2cc(Cl)ccc12 (stereo not given) [CHLOROQUINE]				226 µM		
CCCCCCCn1cc(CCCC(=O)NC23CC4CC(CC(C4)C2)C3)c2ccccc21	1.91 µM	3.53 µM	1.84	> 250 µM	> 130	> 70
O=C(CCCc1cn(Cc2cn(Cc3ccccc3)nn2)c2ccccc12)NC12CC3CC(CC(C3)C1)C2	2.16 µM	> 10 µM	> 4.62	> 250 µM	> 115	> 25
CC(C)(C)c1ccc(S(=O)(=O)n2cc(CCC(=O)NC34CC5CC(CC(C5)C3)C4)c3ccccc32)cc1	5.8 µM	6.19 µM	1.06			
O=C(CCCc1cn(Cc2ccc(Cl)cc2)c2ccccc12)NC1CCCCCC1	> 10 µM	> 10 µM	> 1			
O=C(CCCc1cn(CCN2CCOCC2)c2ccccc12)NC1CCCCCC1	4.15 µM	7.04 µM	1.77	> 250 µM	> 60	> 35
CC(C)(C)c1ccc(S(=O)(=O)n2cc(CCCC(=O)NC3CCCCCC3)c3ccccc32)cc1	2 µM	1.6 µM	0.8	> 250 µM	> 125	> 156
Cc1cc(S(=O)(=O)n2cc(CCCC(=O)NC3CCCCCC3)c3ccccc32)c(C)cc1Cl	2.17 µM	2.19 µM	1	> 250 µM	> 115	> 114
C=CCn1cc(CCCC(=O)NC2CCCCCC2)c2ccccc21	> 10 µM	> 10 µM	> 1			
Cc1ccc(S(=O)(=O)n2cc(CCCC(=O)NC34CC5CC(CC(C5)C3)C4)c3ccccc32)cc1	3.99 µM	3.95 µM	0.98	> 250 µM	> 62	> 63
CCCn1cc(CCCC(=O)NC23CC4CC(CC(C4)C2)C3)c2ccccc21	4.79 µM	7.37 µM	1.53			
O=C(CCCc1cn(CCN2CCCC2)c2ccccc12)NC12CC3CC(CC(C3)C1)C2	7.03 µM	9.67 µM	1.37			
O=C(Cn1cc(Cn2cc(CCCC(=O)NC34CC5CC(CC(C5)C3)C4)c3ccccc32)nn1)Nc1ccc(I)cc1	> 10 µM	> 10 µM	> 1			
